One test has as its target Heat shock protein HSP90 (Homo sapiens, UniProt P07900+P08238). In words: Inhibition of HSP90 (unknown origin). The format is protein assay.
The test system of a further test is DU-145. In words: Antiproliferative activity against p53 deficient human DU145 cells incubated for 72 hrs by CellTiter-Glo assay. The format is functional. The following applies: DU-145, 72 h.
For the next test, the system named is NCI-H1299. In words: Antiproliferative activity against p53 deficient human H1299 cells incubated for 72 hrs by CellTiter-Glo assay. The format is functional. The following applies: NCI-H1299, 72 h. (Cellular ATP, detected with luciferase, serves as a proxy for viable cell number.)
For test [1], the target named is [Pyruvate dehydrogenase (acetyl-transferring)] kinase isozyme 1, mitochondrial (Homo sapiens, UniProt Q15118). In words: Inhibition of PDHK1 (unknown origin) by radiometric biochemical kinase assay.
In test [2] the target is T1, [Pyruvate dehydrogenase (acetyl-transferring)] kinase isozyme 2, mitochondrial (Homo sapiens, UniProt Q15119). In words: Inhibition of PDHK2 (unknown origin) by radiometric biochemical kinase assay.
For test [3], the target named is T2, [Pyruvate dehydrogenase (acetyl-transferring)] kinase isozyme 4, mitochondrial (Homo sapiens, UniProt Q16654). In words: Inhibition of PDHK4 (unknown origin) by radiometric biochemical kinase assay.
For test [4], the target named is [Pyruvate dehydrogenase (acetyl-transferring)] kinase isozyme 3, mitochondrial (Homo sapiens, UniProt Q15120). In words: Inhibition of PDHK3 (unknown origin) by radiometric biochemical kinase assay.
Test [5] concerns the target T2, [Pyruvate dehydrogenase (acetyl-transferring)] kinase isozyme 4, mitochondrial. In words: Inhibition of PDHK4 (unknown origin) assessed as reduction in NAD measured for 30 mins.
The target in test [6] is T1, [Pyruvate dehydrogenase (acetyl-transferring)] kinase isozyme 2, mitochondrial. In words: Inhibition of PDHK2 (unknown origin) assessed as reduction in NAD measured for 30 mins.

Some results are limits rather than exact numbers.

What is called IC50 is the concentration needed to halve the response being measured. Broadly, the GI50 is the concentration giving 50% growth inhibition.

Chain of [Pyruvate dehydrogenase (acetyl-transferring)] kinase isozyme 3, mitochondrial (Q15120 whole entry): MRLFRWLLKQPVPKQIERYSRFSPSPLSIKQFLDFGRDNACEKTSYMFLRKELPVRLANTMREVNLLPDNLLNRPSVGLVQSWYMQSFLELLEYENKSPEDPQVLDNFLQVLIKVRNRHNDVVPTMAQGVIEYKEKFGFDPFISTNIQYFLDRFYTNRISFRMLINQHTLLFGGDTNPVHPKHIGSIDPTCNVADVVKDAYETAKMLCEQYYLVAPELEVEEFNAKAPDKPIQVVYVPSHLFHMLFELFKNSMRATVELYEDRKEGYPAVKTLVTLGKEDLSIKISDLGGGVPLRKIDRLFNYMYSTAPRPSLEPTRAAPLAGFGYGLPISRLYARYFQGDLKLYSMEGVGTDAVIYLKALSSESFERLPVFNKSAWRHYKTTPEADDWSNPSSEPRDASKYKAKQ
T2 sequence (Q16654 whole entry): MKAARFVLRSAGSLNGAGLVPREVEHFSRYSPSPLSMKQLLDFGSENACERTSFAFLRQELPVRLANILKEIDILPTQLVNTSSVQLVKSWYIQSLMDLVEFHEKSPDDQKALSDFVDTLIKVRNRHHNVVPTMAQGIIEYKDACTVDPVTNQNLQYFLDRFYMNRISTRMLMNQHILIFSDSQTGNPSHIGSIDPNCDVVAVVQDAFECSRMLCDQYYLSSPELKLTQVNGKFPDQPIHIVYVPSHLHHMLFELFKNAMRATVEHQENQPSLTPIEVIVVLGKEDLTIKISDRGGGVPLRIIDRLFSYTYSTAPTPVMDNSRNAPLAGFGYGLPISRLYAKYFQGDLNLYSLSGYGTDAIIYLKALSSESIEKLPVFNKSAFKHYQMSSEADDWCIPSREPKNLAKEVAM
Chain of [Pyruvate dehydrogenase (acetyl-transferring)] kinase isozyme 1, mitochondrial (Q15118 whole entry): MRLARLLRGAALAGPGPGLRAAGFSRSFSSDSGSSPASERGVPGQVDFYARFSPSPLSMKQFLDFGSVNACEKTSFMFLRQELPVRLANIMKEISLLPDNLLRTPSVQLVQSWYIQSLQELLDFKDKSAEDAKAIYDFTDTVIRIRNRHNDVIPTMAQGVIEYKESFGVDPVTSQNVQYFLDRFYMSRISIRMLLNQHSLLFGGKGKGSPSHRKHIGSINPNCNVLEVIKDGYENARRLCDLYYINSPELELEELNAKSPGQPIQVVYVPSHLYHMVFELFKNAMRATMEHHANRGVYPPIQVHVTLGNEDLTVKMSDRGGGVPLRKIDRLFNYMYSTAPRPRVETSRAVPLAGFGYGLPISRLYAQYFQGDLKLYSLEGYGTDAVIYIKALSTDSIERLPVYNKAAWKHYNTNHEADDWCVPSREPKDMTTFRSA

As to `Cc1cnc(Cl)nc1-c1ccc(N(Cc2ccc(CNC(=O)C(F)F)cc2)C(=O)c2ccc(O)cc2O)cc1`, the IC50 against Heat shock protein HSP90 was more than 10000 nM. The GI50 with DU-145 and in the test with NCI-H1299 was more than 50000 nM each time.
For `CN(C)C(=O)c1ccc(N(Cc2ccccc2)C(=O)c2ccc(O)cc2O)cc1`, the IC50 came out at 109 nM in test [1], 206 nM in test [2] and 66 nM in [3].
Consider `CN(C)C(=O)c1ccc(N(Cc2ccc(F)cc2)C(=O)c2ccc(O)cc2)cc1`, for which the IC50 is 2040 nM in test [2] and 390 nM in test [3].
The like results for `CN(C)C(=O)c1ccc(N(Cc2ccc(F)cc2)C(=O)c2ccccc2O)cc1` were, in that order, more than 10000 nM and more than 10000 nM.
As to `CN(C)C(=O)c1ccc(N(Cc2cnc(Br)s2)C(=O)c2ccc(O)cc2O)cc1`, the IC50 amounted to 24 nM in [1], 132 nM in test [2], 87 nM in test [3] and 90 nM in test [4]. The GI50 with DU-145 worked out at 18900 nM; in the test on NCI-H1299, 32200 nM.
As to `CC(=O)Nc1ccc(CN(C(=O)c2ccc(O)cc2O)c2ccc(C(=O)N3CCOCC3)cc2)cc1`, the IC50 was determined as 2660 nM in test [2] and 5790 nM in [3].
The like results for `CC(=O)Nc1ccc(CN(C(=O)c2ccc(O)cc2O)c2ccc(C(=O)NCCO)cc2)cc1` were, in that order, 9910 nM and 12300 nM.
As for `CN(C)C(=O)c1ccc(N(Cc2ncc(Br)s2)C(=O)c2ccc(O)cc2O)cc1`, the IC50 worked out at 20 nM in [1]; 64 nM in test [2]; 6000 nM on Heat shock protein HSP90; 20 nM in test [3]; 64 nM in test [4]. Also, the GI50 in the test on DU-145 is 40800 nM; with NCI-H1299, 60200 nM.
As to `CC(=O)Nc1ccc(CN(C(=O)c2ccc(O)cc2O)c2ccc(C(=O)N3CCCCC3)cc2)cc1`, the IC50 in [2] worked out at 1620 nM; in [3], 1980 nM.
For the molecule `CC(=O)Nc1ccc(CN(C(=O)c2ccc(O)cc2O)c2ccc(C(=O)NC3CC3)cc2)cc1`, the IC50 is 1960 nM in test [2] and 14800 nM in test [3].
The like results for `CC(=O)Nc1ccc(CN(C(=O)c2ccc(O)cc2O)c2ccc(C(=O)N(C)C)cc2)cc1` were, in that order, 503 nM and 311 nM.
The like results for `CN(C)C(=O)c1ccc(N(Cc2ccc(C(F)(F)F)cc2)C(=O)c2ccc(O)cc2O)cc1` were, in that order, 140 nM and 273 nM.
Consider `CN(C)C(=O)c1ccc(N(Cc2ccc(C#N)s2)C(=O)c2ccc(O)cc2O)cc1`, for which the IC50 was determined as 57 nM in test [1], 95 nM in [2], 89 nM in test [3] and 98 nM in test [4]. In addition, the GI50 with DU-145 was 59800 nM; with NCI-H1299, 107000 nM.
For the molecule `CN(C)C(=O)c1ccc(N(Cc2ccc(I)o2)C(=O)c2ccc(O)cc2O)cc1`, the IC50 in test [1] turned out to be 14 nM; in test [2], 98 nM; in [3] it was 11 nM; in [4], 5 nM. The GI50 in the test with DU-145 stood at 15900 nM; with NCI-H1299, 39200 nM.
As to `CN(C)C(=O)c1ccc(N(Cc2ccc3ccccc3c2)C(=O)c2ccc(O)cc2O)cc1`, the IC50 in [2] worked out at 373 nM; in test [3], 234 nM.
`CN(C)C(=O)c1ccc(N(Cc2ccc(Cl)cc2)C(=O)c2ccc(O)cc2O)cc1`: the figures for the IC50 in test [2] and in [3] were 126 nM and 169 nM, respectively. In addition, the GI50 in the test with DU-145 stood at 51000 nM; with NCI-H1299, 31500 nM.
For `CN(C)C(=O)c1ccc(N(Cc2ccc([N+](=O)[O-])cc2)C(=O)c2ccc(O)cc2O)cc1`, the IC50 in [2] came out at 110 nM; in test [3], 99 nM. For the same molecule, the GI50 with DU-145 worked out at 44500 nM; in the test with NCI-H1299, 97100 nM.
For the molecule `CN(C)C(=O)c1ccc(N(CC(C)(C)C)C(=O)c2ccc(O)cc2O)cc1`, the IC50 in [2] amounted to 772 nM; in test [3], 5330 nM.
As for `CN(C)C(=O)c1ccc(N(Cc2ccc(Br)s2)C(=O)c2ccc(O)cc2O)cc1`, the IC50 was 42 nM in [1], 18 nM in test [2], 8 nM in [3] and 90 nM in [4]. Further, the values for the GI50 with DU-145 and in the test with NCI-H1299 were 42200 nM and 49800 nM, respectively.
As for `Cc1ccc(CN(C(=O)c2ccc(O)cc2O)c2ccc(C(=O)N(C)C)cc2)o1`, the IC50 came to 20 nM in test [1], 252 nM in test [2], 52 nM in [3] and 255 nM in test [4].
For `CN(C)C(=O)c1ccc(N(Cc2ccc(F)cc2)C(=O)c2ccc(O)cc2O)cc1`, the IC50 in test [1] came out at 67 nM; in test [2], 113 nM; against Heat shock protein HSP90 it was 5200 nM; in test [3], 52 nM; in [4], 142 nM. The GI50 in the test with DU-145 worked out at 69700 nM; with NCI-H1299, 57100 nM.
Take `CN(C)C(=O)c1ccc(N(Cc2ccc(C#N)cc2)C(=O)c2ccc(O)cc2O)cc1`: the IC50 is 151 nM in test [1], 302 nM in test [2], 399 nM in test [3] and 461 nM in [4].
For the molecule `CN(C)C(=O)c1ccc(N(Cc2ccco2)C(=O)c2ccc(O)cc2O)cc1`, the IC50 came out at 48 nM in test [1]; 580 nM in test [5]; 133 nM in [2]; 770 nM against Heat shock protein HSP90; 1090 nM in test [6]; 69 nM in [3]. For the same molecule, in test [4], the IC50 is 67 nM. The GI50 was 9000 nM in the test with DU-145 and 7800 nM with NCI-H1299.
Turning to `CC(=O)Nc1ccc(CN(C(=O)c2ccc(O)cc2O)c2ccc(C(=O)N3CCCC3)cc2)cc1`, the values for the IC50 in [2] and in [3] were 1660 nM and 1810 nM, respectively.
In the case of `CNC(=O)c1ccc(N(Cc2ccc(NC(C)=O)cc2)C(=O)c2ccc(O)cc2O)cc1`, the IC50 in test [2] came out at 8590 nM; in [3], 7840 nM.
In the case of `CN(C)C(=O)c1ccc(N(CC2CCCCC2)C(=O)c2ccc(O)cc2O)cc1`, the IC50 is 140 nM in [1], 184 nM in test [2], 775 nM in test [3] and 858 nM in test [4].
As to `CN(C)C(=O)c1ccc(N(Cc2ccc(Cl)o2)C(=O)c2ccc(O)cc2O)cc1`, the IC50 was 24 nM in test [1], 193 nM in [2], 82 nM in test [3] and 181 nM in [4]. In addition, the GI50 in the test with DU-145 was 29900 nM; in the test with NCI-H1299 it was 30000 nM.
Consider `CC(=O)Nc1ccc(CN(C(=O)c2ccc(O)cc2O)c2ccc(C(=O)O)cc2)cc1`, for which the IC50 in [2] was 7220 nM; in test [3], 4670 nM.

The values are drawn from ChEMBL document CHEMBL4402524, “Identification of Novel Resorcinol Amide Derivatives as Potent and Specific Pyruvate Dehydrogenase Kinase (PDHK) Inhibitors” (J Med Chem, 2019).
